Key:
[1] = system: Lambsquarters (Chenopodium album); assay: General postemergence herbicidal activity, CHEAL; format: in vivo; settings: post-emergent, 280 g ai/ha, visual score after 14 days (0 = no injury, 100 = complete kill)
Description: (§1) Seeds or nutlets of the desired test plant species were planted in Sun Gro MetroMix® 306 planting mixture, which typically has a pH of 6.0 to 6.8 and an organic matter content of about 30 percent, in plastic pots with a surface area of 64 square centimeters. When required to ensure good germination and healthy plants, a fungicide treatment and/or other chemical or physical treatment was applied. The plants were grown for 7-21 days in a greenhouse with an approximate 15 hour photoperiod which was maintained at about 23-29° C. during the day and 22-28° C. during the night. Nutrients and water were added on a regular basis and supplemental lighting was provided with overhead metal halide 1000-Watt lamps as necessary. The plants were employed for testing when they reached the first or second true leaf stage.
(§2) A weighed amount, determined by the highest rate to be tested, of each test compound was dissolved in 4 mL of a 97:3 v/v (volume/volume) mixture of acetone and dimethyl sulfoxide (DMSO) to obtain concentrated stock solutions. […] The concentrated stock solutions obtained were diluted with 20 mL of an aqueous mixture containing acetone, water, isopropyl alcohol, DMSO, Atplus 411F crop oil concentrate, and Triton® X-155 surfactant in a 48.5:39:10:1.5:1.0:0.02 v/v ratio to obtain spray solutions containing the highest application rates. […]
(§3) The treated plants and control plants were placed in a greenhouse as described above and watered by sub-irrigation to prevent wash-off of the test compounds. After 14 days, the condition of the test plants as compared with that of the untreated plants was determined visually and scored on a scale of 0 to 100 percent where 0 corresponds to no injury and 100 corresponds to complete kill.

[2] = system: Redroot Pigweed (Amatanthus retroflexus); assay: General postemergence herbicidal activity, AMARE; format: in vivo; settings: post-emergent, 280 g ai/ha, visual score after 14 days (0 = no injury, 100 = complete kill)
Description: as §1, §2, §3

[3] = system: Wild Pointsettia (Euphorbia heterophylla); assay: General postemergence herbicidal activity, EPHHL; format: in vivo; settings: post-emergent, 280 g ai/ha, visual score after 14 days (0 = no injury, 100 = complete kill)
Description: as §1, §2, §3

[4] = system: Common Sunflower (Helianthus annuus); assay: General postemergence herbicidal activity, HELAN; format: in vivo; settings: post-emergent, 280 g ai/ha, visual score after 14 days (0 = no injury, 100 = complete kill)
Description: as §1, §2, §3

Row | SMILES | % Growth Reduction CHEAL [1] | % Growth Reduction AMARE [2] | % Growth Reduction EPHHL [3] | % Growth Reduction HELAN [4] | melting point
1 | COC(=O)c1nc(-c2ccc(Cl)c(OC)c2F)nc(O)c1Cl [Compound 1, 6-hydroxy-2-(4-chloro-2-fluoro-3-methoxyphenyl)-5-chloropyrimidine-4-carboxylic acid methyl ester] | 100% | 100% | 100% | 90% | 215 to 217 °C
2 | COC(=O)c1nc(-c2ccc(Cl)c(OC)c2F)nc(O)c1Br [Compound 2, 6-hydroxy-2-(4-chloro-2-fluoro-3-methoxyphenyl)-5-bromopyrimidine-4-carboxylic acid methyl ester] | 95% | 100% | 100% | 85% | 192 to 195 °C
3 | COC(=O)c1nc(-c2ccc(Cl)c(OC)c2F)nc(O)c1OC [Compound 3, 6-hydroxy-2-(4-chloro-2-fluoro-3-methoxyphenyl)-5-methoxypyrimidine-4-carboxylic acid methyl ester] | 90% | 40% | 100% | 10% | 177 to 179 °C

— patent US7833940B2, “2-(substituted phenyl)-6-hydroxy or alkoxy-5-substituted-4-pyrimidinecarboxylates and their use as herbicides” (Dow AgroSciences LLC, priority 2008, dated 2010)
